According to ChEMBL document CHEMBL1137105, “New N-pyridinyl(methyl)-indolalkanamides acting as topical inflammation inhibitors” (2004):
Activity calls are given as the source filed them. The calls are words filed in the database; no cut-off is given here.

Key:
[1] = tested on: Mus musculus; test: inhibition of acute TPA-induced ear swelling in mice on oral administration of 0.1 nmol/kg; format: functional
[2] = tested on: Mus musculus; test: Percent inhibition of acute TPA-induced ear swelling in mice upon topical application at 2x 100 ug; format: functional
[3] = Inhibitory dose was determined; format: functional; settings: read-out: ID50 (the source's name)
[4] = tested on: Mus musculus; test: inhibition of acute TPA-induced ear swelling in mice upon topical application of 2x 100 ug; format: functional
[5] = tested on: Mus musculus; test: inhibition of acute TPA-induced ear swelling in mice on oral administration of 0.1 nmol/kg; not active; format: functional, organism-based

| SMILES | inhibition in vivo at 0.0001 µmol/kg [1] [%] | Inhibition [2] [%] | other results |
| --- | --- | --- | --- |
| Cc1cc(C)nc(NC(=O)CCc2cn(Cc3ccccc3)c3ccccc23)c1 | 61 | – | – |
| Cc1cc(C)nc(NC(=O)CCc2c[nH]c3ccccc23)c1 | 72 | 66 | – |
| O=C(CCc1cn(Cc2ccc(Cl)cc2)c2ccccc12)NCc1cccnc1 | 92 | 71 | ED50 [3]: 24 µmol/kg |
| C[C@@H]1C[C@H]2[C@@H]3CCC4=CC(=O)C=C[C@]4(C)[C@@]3(F)[C@@H](O)C[C@]2(C)[C@@]1(O)C(=O)CO [DEXAMETHASONE] | 82 | 96 | – |
| Cc1cc(C)nc(NC(=O)/C=C/c2cn(Cc3ccc(F)cc3)c3ccccc23)c1 | 80 | 66 | – |
| O=C(CCn1ccc2ccccc21)Nc1ccncc1 | 77 | – | – |
| CC(C)Cc1ccc(C(C)C(=O)O)cc1 (configuration not stated) [IBUPROFEN] | 35 | 59 | – |
| O=C(CCc1cn(Cc2ccc(Cl)cc2)c2ccc(Cl)cc12)NCc1cccnc1 | 84 | 94 | – |
| O=C(CCc1cn(CCN2CCOCC2)c2ccccc12)Nc1ccncc1 | 63 | – | – |
| O=C(CCc1cn(Cc2ccc(Cl)cc2)c2ccc(Cl)cc12)Nc1ccncc1 | 64 | – | – |
| O=C(CCc1c[nH]c2ccccc12)Nc1ccncc1 | 77 | – | Inhibition [4]: 38% |
| Cc1cc(C)nc(NC(=O)CCc2cn(Cc3ccc(Cl)cc3)c3ccccc23)c1 | 64 | – | – |
| O=C(CCc1cn(Cc2ccccc2)c2ccccc12)NCc1cccnc1 | 70 | – | – |
| O=C(CCc1cn(Cc2ccc(Cl)cc2)c2ccccc12)Nc1ccncc1 | 72 | – | – |
| Cc1cc(C)nc(NC(=O)CCc2cn(Cc3ccc(Cl)cc3)c3ccc(Cl)cc23)c1 | 83 | 89 | – |
| O=C(CCc1c[nH]c2ccccc12)NCc1cccnc1 | – | – | inhibition [5]: inactive |
| O=C(CCc1cn(Cc2ccccc2)c2ccccc12)Nc1ccncc1 | 84 | 90 | – |
